Measurements reported in ChEMBL document CHEMBL5247590, “Novel nitrogen mustard-artemisinin hybrids with potent anti-leukemia action through DNA damage and activation of GPx” (Eur J Med Chem, 2022).

How the values were obtained:
HCT-116 = test: Antiproliferative activity against human HCT-116 cells assessed as cell growth inhibition incubated for 72 hrs by MTT assay; assay type: functional, cell-based; settings: HCT-116, 72 h
A549 = test: Antiproliferative activity against human A549 cells assessed as cell growth inhibition incubated for 72 hrs by MTT assay; assay type: functional, cell-based; settings: A549, 72 h
SH-SY5Y = test: Antiproliferative activity against human SH-SY5Y cells assessed as cell growth inhibition incubated for 72 hrs by MTT assay; assay type: functional, cell-based
U-118-MG = test: Antiproliferative activity against human U-118-MG cells assessed as cell growth inhibition incubated for 72 hrs by MTT assay; assay type: functional, cell-based
CCRF-CEM = test: Antiproliferative activity against human CCRF-CEM cells assessed as cell growth inhibition incubated for 72 hrs by MTT assay; assay type: functional, cell-based
[1] = Antiproliferative activity against human L02 cells assessed as cell growth inhibition incubated for 72 hrs by MTT assay; assay type: toxicity, cell-based
[2] = Antitumor activity against human L02 cells assessed as cell growth inhibition; assay type: toxicity, cell-based
Bel-7402 = test: Antitumor activity against human Bel-7402 cells assessed as cell growth inhibition; assay type: functional, cell-based
HL-60 [3] = test: Antiproliferative activity against human HL-60 cells assessed as cell growth inhibition incubated for 72 hrs by MTT assay; assay type: functional, cell-based; settings: HL-60, 72 h
K562 = test: Antiproliferative activity against human K562 cells assessed as cell growth inhibition incubated for 72 hrs by MTT assay; assay type: functional, cell-based; settings: K562, 72 h
[4] = Selectivity index, ratio of IC50 for human L02 cells to IC50 for human CCRF-CEM cells; assay type: toxicity; settings: L02 cells and CCRF-CEM cells, read-out: Selectivity Index
[5] = Selectivity index, ratio of IC50 for human HL-60 cells to IC50 for human CCRF-CEM cells
[6] = Selectivity index, ratio of IC50 for human K562 cells to IC50 for human CCRF-CEM cells
HL-60 [7] = test: Antitumor activity against human HL-60 cells assessed as cell growth inhibition; assay type: functional, cell-based
[8] = Antitumor activity against PBMC cells (unknown origin) assessed as cell growth inhibition; assay type: functional, cell-based; settings: Homo sapiens

| Compound | IC50 (HCT-116) [µM] | IC50 (A549) [µM] | IC50 (SH-SY5Y) [µM] | IC50 (U-118-MG) [µM] | IC50 (CCRF-CEM) [µM] | IC50 at 72 h [1] [µM] | IC50 [2] [µM] | IC50 (Bel-7402) [µM] | IC50 (HL-60 [3]) [µM] | IC50 (K562) [µM] | selectivity ratio [4] | Selectivity Index [5] | Selectivity Index [6] | IC50 (HL-60 [7]) [µM] | IC50 [8] [µM] |
| --- | --- | --- | --- | --- | --- | --- | --- | --- | --- | --- | --- | --- | --- | --- | --- |
| C[C@@H]1CC[C@@H]2[C@]34OO[C@](C)(CC[C@@H]13)O[C@H]4O[C@]2(C)COC(=O)c1cccc(N(CCCl)CCCl)c1 | 8.42 | > 40 | > 40 | 22.1 | > 40 | 32 |  |  |  |  |  |  |  |  |  |
| C=C1C(=O)[C@]23[C@H](OC(=O)c4ccc(N(CCCl)CCCl)cc4)[C@H]1CC[C@H]2[C@@]12CO[C@@]3(O)[C@@H](O)[C@@H]1C(C)(C)CC[C@@H]2O |  |  |  |  |  |  | 4.03 | 0.5 |  |  |  |  |  |  |  |
| O=C(O)CCCc1ccc(N(CCCl)CCCl)cc1 [CHLORAMBUCIL] | > 40 | > 40 | > 40 | > 40 | 12 |  |  |  | 34.4 | > 100 | 8.79 | 24.1 | 1.05 |  |  |
| C[C@@H]1CC[C@H]2[C@@H](C)C(OC(=O)CCc3ccc(N(CCCl)CCCl)cc3)O[C@@H]3O[C@@]4(C)CC[C@@H]1[C@]32OO4 (stereo not given in full) | 8.08 | > 40 | > 40 | > 40 | 4.13 | > 40 |  |  | 30.4 | 50.2 |  |  |  |  |  |
| C[C@H]1[C@@H](O)O[C@@H]2O[C@@]3(C)CC[C@H]4[C@H](C)CC[C@@H]1[C@@]24OO3 [ARTENIMOL] | > 40 | > 40 | > 40 |  | 5.13 | 24.3 |  |  | 61.2 | 21.8 |  |  |  |  |  |
| C[C@@H]1CC[C@H]2[C@@H](C)C(OC(=O)CCCc3ccc(N(CCCl)CCCl)cc3)O[C@@H]3O[C@@]4(C)CC[C@@H]1[C@]32OO4 (stereo not given in full) | 12.3 | 14.9 | > 40 | > 40 | 1.38 | > 40 |  |  |  |  |  |  |  |  |  |
| COc1cccc2c1C(=O)c1c(O)c3c(c(O)c1C2=O)C[C@@](O)(C(=O)CO)C[C@@H]3O[C@H]1C[C@H](N)[C@H](O)[C@H](C)O1 [DOXORUBICIN] | 1.88 |  | 1.54 |  |  |  |  |  |  |  |  |  |  |  |  |
| Cc1cc(C(=O)OC2O[C@@H]3O[C@@]4(C)CC[C@H]5[C@H](C)CC[C@@H]([C@H]2C)[C@@]35OO4)ccc1N(CCCl)CCCl (stereo not given in full) | 6.72 | 7.02 | > 40 | > 40 | 1.87 | 5 |  |  |  |  |  |  |  |  |  |
| C[C@@H]1CC[C@@H]2[C@]34OO[C@](C)(CC[C@@H]13)O[C@H]4O[C@]2(C)COC(=O)c1ccccc1N(CCCl)CCCl | 11.8 | 5.79 | 22.1 | > 40 | 1.48 | 7.68 |  |  | 0.789 | 9.61 | 5.19 | 9.73 | 0.8 |  |  |
| C[C@@H]1CC[C@H]2[C@@H](C)C(OC(=O)c3ccc(N(CCCl)CCCl)c(F)c3)O[C@@H]3O[C@@]4(C)CC[C@@H]1[C@]32OO4 (stereo not given in full) | 4.19 | 8.59 | > 40 | > 40 | 24.7 | > 40 |  |  |  |  |  |  |  |  |  |
| COC(=O)[C@H](Cc1ccc(N(CCCl)CCCl)cc1)NC(=O)CCC(=O)OCCCOCCCn1c2c(c3ccccc31)CCN1C(=O)c3ccccc3N(C)[C@H]21 |  |  |  |  |  |  |  |  |  |  |  |  |  | 0.5 | > 200 |
| C[C@@H]1CC[C@@H]2[C@]34OO[C@](C)(CC[C@@H]13)O[C@H]4O[C@]2(C)COC(=O)c1ccc(N(CCCl)CCCl)c(F)c1 | > 40 | > 40 | > 40 | > 40 | > 40 | > 40 |  |  |  |  |  |  |  |  |  |
| C[C@@H]1CC[C@@H]2[C@]34OO[C@](C)(CC[C@@H]13)O[C@H]4O[C@]2(C)COC(=O)Cc1ccc(N(CCCl)CCCl)cc1 | 40 | > 40 | > 40 | > 40 | 3.84 | > 40 |  |  | 20.9 | > 100 |  |  |  |  |  |
| C[C@@H]1CC[C@H]2[C@@H](C)C(OC(=O)c3cccc(N(CCCl)CCCl)c3)O[C@@H]3O[C@@]4(C)CC[C@@H]1[C@]32OO4 (stereo not given in full) |  | 3.24 | > 40 | > 40 | > 40 | > 40 |  |  |  |  |  |  |  |  |  |
| C=C1C(=O)[C@@]23C(=O)O[C@H]4CCC(C)(C)[C@H]5[C@H](O)OC[C@@]45[C@@H]2CC[C@@H]1[C@H]3OC(=O)c1ccc(N(CCCl)CCCl)cc1 |  |  |  |  |  |  | > 100 |  |  |  |  |  |  |  |  |
| C[C@@H]1CC[C@@H]2[C@]34OO[C@](C)(CC[C@@H]13)O[C@H]4O[C@]2(C)COC(=O)CCCc1ccc(N(CCCl)CCCl)cc1 | > 40 | > 40 | > 40 | > 40 | 25.3 | > 40 |  |  |  |  |  |  |  |  |  |
| C[C@@H]1CC[C@H]2[C@@H](C)C(OC(=O)c3ccccc3N(CCCl)CCCl)O[C@@H]3O[C@@]4(C)CC[C@@H]1[C@]32OO4 (stereo not given in full) | 25.6 | 8.22 | > 40 | > 40 | 3.41 | 8.24 |  |  |  |  |  |  |  |  |  |
| C[C@@H]1CC[C@@H]2[C@]34OO[C@](C)(CC[C@@H]13)O[C@H]4O[C@]2(C)COC(=O)CCc1ccc(N(CCCl)CCCl)cc1 | 20.8 | > 40 | > 40 | > 40 | 8.81 | > 40 |  |  |  |  |  |  |  |  |  |
| O=C(OCCCOc1ccc(-c2cc(=O)c3c(O)c(O)c(O)cc3o2)cc1)c1ccc(N(CCCl)CCCl)cc1 |  |  |  |  |  |  | > 50 |  |  |  |  |  |  |  |  |
| C[C@@H]1CC[C@H]2[C@@H](C)C(OC(=O)Cc3ccc(N(CCCl)CCCl)cc3)O[C@@H]3O[C@@]4(C)CC[C@@H]1[C@]32OO4 (stereo not given in full) | 5.89 | 12.7 | > 40 | > 40 | 1.57 | 15.9 |  |  | 11.2 | 15.5 |  |  |  |  |  |
| C[C@@H]1CC[C@@H]2[C@]34OO[C@](C)(CC[C@@H]13)O[C@H]4O[C@]2(C)COC(=O)c1ccc(N(CCCl)CCCl)cc1 | 7.96 | 5.24 | > 40 | > 40 | 4.51 | > 40 |  |  |  |  |  |  |  |  |  |
| Cc1cc(C(=O)OC[C@@]2(C)O[C@@H]3O[C@@]4(C)CC[C@H]5[C@H](C)CC[C@@H]2[C@@]35OO4)ccc1N(CCCl)CCCl | 4.22 | 7.03 | > 40 | > 40 | 0.55 | 1.87 |  |  | 2.97 | 0.589 | 3.37 | 0.63 | 3.18 |  |  |
